Compound: COC1=C(C=C(C=C1)C2=CC3=NC=CN3C(=N2)NC4=C(C=CC=N4)C(=O)N)OC [BAY61-3606] + C[C@]1(O)C[C@@H](c2nc(-c3ccc4ccc(-c5ccccc5)nc4c3)c3c(N)nccn32)C1 [Linsitinib] (partner 1 µM)
Assay: relative viability (nuclei count vs DMSO), 5 days (fraction); higher = more cells survive
Conditions: first compound 0.02 µM
Method in brief: (§1)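 Values are medians from duplicate plates. Each reflects relative viability, defined as the nuclei count of treated wells over that of vehicle wells. Lung cancer cell lines in 1536-well plates were pin-tool dosed one day after seeding with one drug alone or with a fixed anchor-drug dose plus five library-drug doses (not always all listed) in √10 steps, then fixed, stained and imaged at 4× after 5 days.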

Cell Line | relative viability
NCI-H358 | 0.769
NCI-H322M | 1.05
HCC-78 | 0.742
LXF-289 | 0.906
BEN | 1.04
HARA | 1.03
HCC-827 | 0.971
NCI-H520 | 1.14
LOU-NH91 | 0.978
NCI-H2023 | 0.703
A-427 | 1.14
NCI-H647 | 1.34
PC-3 [JPC-3] | 0.895
NCI-H1755 | 1.06
NCI-H650 | 1.12
NCI-H3122 | 1.08

Cell Line | relative viability
201T | 1.05
NCI-H1975 | 1.1
HOP-62 | 1.11
NCI-H2405 | 1.05
NCI-H1355 | 0.798
NCI-H838 | 1.12
CAL-12T | 0.903
NCI-H1666 | 0.954
EPLC-272H | 1.18
NCI-H2347 | 1.03
NCI-H1915 | 1.1
NCI-H1437 | 1.1
NCI-H460 | 1.03
NCI-H1563 | 1.37
NCI-H1792 | 0.531

Same assay, conditions: first compound 0.06325 µM

Cell Line | relative viability
NCI-H358 | 0.64
NCI-H322M | 0.946
HCC-78 | 0.456
LXF-289 | 1.02
BEN | 0.805
HARA | 1.01
HCC-827 | 0.959
NCI-H520 | 1.04
LOU-NH91 | 0.858
NCI-H2023 | 0.681
A-427 | 1.07
NCI-H647 | 1.46
PC-3 [JPC-3] | 0.906
NCI-H1755 | 1.04
NCI-H650 | 0.934
NCI-H3122 | 1.08
201T | 0.975
NCI-H1975 | 0.813
NCI-H2405 | 0.835
NCI-H1355 | 0.8
NCI-H838 | 1
CAL-12T | 0.755
EPLC-272H | 1.06
NCI-H2347 | 0.97
NCI-H1915 | 1.06
NCI-H1437 | 1.1
NCI-H460 | 0.77
NCI-H1563 | 1.42
NCI-H1792 | 0.494

Same assay, conditions: first compound 0.2 µM

Cell Line | relative viability
NCI-H358 | 0.699
NCI-H322M | 0.911
HCC-78 | 0.598
LXF-289 | 0.948
BEN | 1.06
HARA | 0.972
HCC-827 | 0.973
NCI-H520 | 1.08
LOU-NH91 | 0.977
NCI-H2023 | 0.779
A-427 | 1.06
NCI-H647 | 1.46
PC-3 [JPC-3] | 0.947
NCI-H1755 | 1.03
NCI-H650 | 0.781
NCI-H3122 | 0.974

Cell Line | relative viability
201T | 0.972
NCI-H1975 | 0.891
HOP-62 | 0.961
NCI-H2405 | 0.94
NCI-H1355 | 0.799
NCI-H838 | 1.06
CAL-12T | 0.818
NCI-H1666 | 0.76
EPLC-272H | 1.07
NCI-H2347 | 0.978
NCI-H1915 | 1.05
NCI-H1437 | 1.01
NCI-H460 | 0.752
NCI-H1563 | 1.2
NCI-H1792 | 0.591

Same assay, conditions: first compound 0.6325 µM

Cell Line | relative viability
NCI-H358 | 0.673
NCI-H322M | 0.925
HCC-78 | 0.535
LXF-289 | 1.05
BEN | 1.01
HARA | 1.06
HCC-827 | 1.05
NCI-H520 | 1.16
LOU-NH91 | 1.01
NCI-H2023 | 0.715
A-427 | 1.06
NCI-H647 | 1.05
PC-3 [JPC-3] | 1.01
NCI-H1755 | 0.981
NCI-H650 | 1.02
NCI-H3122 | 0.924

Cell Line | relative viability
201T | 1.01
NCI-H1975 | 0.837
HOP-62 | 1.11
NCI-H2405 | 1.12
NCI-H1355 | 0.891
NCI-H838 | 1.13
CAL-12T | 0.85
NCI-H1666 | 0.954
EPLC-272H | 1.19
NCI-H2347 | 1.03
NCI-H1915 | 1.06
NCI-H1437 | 1.03
NCI-H460 | 0.822
NCI-H1563 | 1.12
NCI-H1792 | 0.627

Same assay, conditions: first compound 2 µM

Cell Line | relative viability
NCI-H358 | 0.299
NCI-H322M | 0.878
HCC-78 | 0.459
LXF-289 | 0.569
BEN | 0.793
HARA | 0.931
HCC-827 | 0.966
NCI-H520 | 0.94
LOU-NH91 | 0.796
NCI-H2023 | 0.557
A-427 | 1.15
NCI-H647 | 0.661
PC-3 [JPC-3] | 0.93
NCI-H1755 | 0.974
NCI-H650 | 0.596
NCI-H3122 | 0.918

Cell Line | relative viability
201T | 1.07
NCI-H1975 | 0.615
HOP-62 | 0.713
NCI-H2405 | 0.639
NCI-H1355 | 0.678
NCI-H838 | 0.891
CAL-12T | 0.388
NCI-H1666 | 0.831
EPLC-272H | 1.26
NCI-H2347 | 0.898
NCI-H1915 | 0.854
NCI-H1437 | 0.813
NCI-H460 | 0.189
NCI-H1563 | 1.03
NCI-H1792 | 0.627

Compound: COc1cccc2c1C(=O)c1c(O)c3c(c(O)c1C2=O)C[C@@](O)(C(=O)CO)C[C@@H]3O[C@H]1C[C@H](N)[C@H](O)[C@H](C)O1 [Doxorubicin] + COc1cccc2cc(-c3nc([C@H]4CC[C@H](C(=O)O)CC4)n4ncnc(N)c34)[nH]c12 [OSI-027] (partner 0.5 µM)
Assay: as above
Conditions: first compound 0.001 µM
Method in brief: as §1

Cell Line | relative viability
NCI-H358 | 0.853
NCI-H322M | 0.414
HCC-78 | 0.433
LXF-289 | 0.613
BEN | 0.301
HARA | 0.454
HCC-827 | 0.725
NCI-H520 | 0.249
LOU-NH91 | 0.569
NCI-H2023 | 0.347
A-427 | 0.427
NCI-H647 | 0.695
PC-3 [JPC-3] | 0.797
NCI-H1755 | 0.631
NCI-H650 | 0.574
NCI-H3122 | 0.489
201T | 0.494
NCI-H1975 | 0.637
HOP-62 | 0.832
NCI-H2405 | 0.607
NCI-H1355 | 0.374
NCI-H838 | 0.421
CAL-12T | 0.609
NCI-H1666 | 0.778
EPLC-272H | 0.29
NCI-H2347 | 0.469
NCI-H1915 | 0.532
NCI-H1437 | 0.828
NCI-H460 | 0.614
NCI-H1563 | 0.813

Same assay, conditions: first compound 0.003162 µM

Cell Line | relative viability
NCI-H358 | 0.642
NCI-H322M | 0.493
HCC-78 | 0.384
LXF-289 | 0.832
BEN | 0.28
HARA | 0.543
HCC-827 | 0.714
NCI-H520 | 0.274
LOU-NH91 | 0.748
NCI-H2023 | 0.363
A-427 | 0.506
NCI-H647 | 0.805
PC-3 [JPC-3] | 0.729
NCI-H1755 | 0.711
NCI-H650 | 0.544
NCI-H3122 | 0.89

Cell Line | relative viability
201T | 0.838
NCI-H1975 | 0.715
HOP-62 | 0.759
NCI-H2405 | 0.645
NCI-H1355 | 0.422
NCI-H838 | 0.429
CAL-12T | 0.695
NCI-H1666 | 0.736
EPLC-272H | 0.275
NCI-H2347 | 0.405
NCI-H1915 | 0.674
NCI-H1437 | 0.916
NCI-H460 | 0.41
NCI-H1563 | 0.788
NCI-H1792 | 0.674

Same assay, conditions: first compound 0.01 µM

Cell Line | relative viability
NCI-H358 | 0.417
NCI-H322M | 0.566
HCC-78 | 0.329
LXF-289 | 0.794
BEN | 0.335
HARA | 0.569
HCC-827 | 0.796
NCI-H520 | 0.233
LOU-NH91 | 0.803
NCI-H2023 | 0.314
A-427 | 0.429
NCI-H647 | 0.771
PC-3 [JPC-3] | 0.747
NCI-H1755 | 0.747
NCI-H650 | 0.59
NCI-H3122 | 0.819

Cell Line | relative viability
201T | 0.724
NCI-H1975 | 0.685
HOP-62 | 0.798
NCI-H2405 | 0.654
NCI-H1355 | 0.396
NCI-H838 | 0.387
CAL-12T | 0.515
NCI-H1666 | 0.547
EPLC-272H | 0.255
NCI-H2347 | 0.433
NCI-H1915 | 0.667
NCI-H1437 | 0.842
NCI-H460 | 0.482
NCI-H1563 | 0.684
NCI-H1792 | 0.713

Same assay, conditions: first compound 0.03162 µM

Cell Line | relative viability
NCI-H358 | 0.121
NCI-H322M | 0.556
HCC-78 | 0.354
LXF-289 | 0.834
BEN | 0.301
HARA | 0.509
HCC-827 | 0.671
NCI-H520 | 0.193
LOU-NH91 | 0.681
NCI-H2023 | 0.142
A-427 | 0.43
NCI-H647 | 0.498
PC-3 [JPC-3] | 0.733
NCI-H1755 | 0.721
NCI-H650 | 0.522
NCI-H3122 | 0.382

Cell Line | relative viability
201T | 0.638
NCI-H1975 | 0.497
HOP-62 | 0.719
NCI-H2405 | 0.629
NCI-H1355 | 0.432
NCI-H838 | 0.39
CAL-12T | 0.194
NCI-H1666 | 0.45
EPLC-272H | 0.272
NCI-H2347 | 0.523
NCI-H1915 | 0.628
NCI-H1437 | 0.698
NCI-H460 | 0.0685
NCI-H1563 | 0.589
NCI-H1792 | 0.709

Same assay, conditions: first compound 0.1 µM

Cell Line | relative viability
NCI-H358 | 0.0934
NCI-H322M | 0.378
HCC-78 | 0.318
LXF-289 | 0.819
BEN | 0.29
HARA | 0.473
HCC-827 | 0.754
NCI-H520 | 0.202
LOU-NH91 | 0.69
NCI-H2023 | 0.0903
A-427 | 0.442
NCI-H647 | 0.215
PC-3 [JPC-3] | 0.801
NCI-H1755 | 0.704
NCI-H650 | 0.495
NCI-H3122 | 0.314

Cell Line | relative viability
201T | 0.274
NCI-H1975 | 0.256
HOP-62 | 0.767
NCI-H2405 | 0.509
NCI-H1355 | 0.389
NCI-H838 | 0.328
CAL-12T | 0.146
NCI-H1666 | 0.486
EPLC-272H | 0.28
NCI-H2347 | 0.35
NCI-H1915 | 0.659
NCI-H1437 | 0.351
NCI-H460 | 0.0255
NCI-H1563 | 0.5
NCI-H1792 | 0.625
